Data on 5 molecules can be found in PMC2193020 (The Journal of Experimental Medicine, 1999).

Assay [1] deals with T1, I-A^s (Mus musculus, UniProt P06345+P14437).
T1 sequence (P14437 1-233): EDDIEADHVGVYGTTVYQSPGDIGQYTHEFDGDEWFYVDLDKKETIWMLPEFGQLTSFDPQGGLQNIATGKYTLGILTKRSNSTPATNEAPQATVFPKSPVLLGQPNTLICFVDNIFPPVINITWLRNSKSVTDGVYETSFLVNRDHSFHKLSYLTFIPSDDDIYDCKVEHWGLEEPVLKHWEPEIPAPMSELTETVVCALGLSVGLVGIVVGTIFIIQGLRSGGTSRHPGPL
T1 sequence (P06345 28-263): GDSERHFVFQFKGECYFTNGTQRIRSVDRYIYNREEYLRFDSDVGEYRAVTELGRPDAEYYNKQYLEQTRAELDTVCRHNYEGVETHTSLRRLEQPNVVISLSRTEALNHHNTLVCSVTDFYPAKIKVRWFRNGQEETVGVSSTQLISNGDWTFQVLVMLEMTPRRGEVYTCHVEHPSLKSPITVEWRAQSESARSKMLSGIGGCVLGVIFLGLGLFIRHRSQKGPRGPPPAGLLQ
The experiment in a line: Class II peptide binding assay on purified I-A^s molecules.

Assay [2] concerns MBP autoantibodies affinity-purified from CNS lesions. Particulars: autoantibodies from CNS lesions of 12 postmortem MS cases; ref [19], [21]; cited from earlier work.

Ends that are not written are not given here. A value given as a limit tells only on which side of the number the result lay.

In general, IC50 refers to the concentration that gives 50% inhibition. A high value points to weaker potency in that assay. For `CC(C)C[C@H](NC(=O)[C@H](CCCNC(=N)N)NC(=O)[C@H](CCCNC(=N)N)NC(=O)CNC(=O)CN)C(=O)N[C@@H](Cc1ccccc1)C(=O)N[C@@H](Cc1ccccc1)C(=O)N[C@H](C(=O)N[C@@H](CCCCN)C(=O)N[C@@H](C)C(=O)N[C@@H](Cc1c[nH]cn1)C(=O)N[C@H](C(=O)N[C@@H](CCCNC(=N)N)C(=O)N[C@@H](CCC(=O)O)C(=O)O)C(C)C)C(C)C` [Herpes simplex DNA pol], the IC50 in assay [1] was 551 nM.

In turn, `CC[C@H](C)[C@H](NC(=O)[C@H](CC(N)=O)NC(=O)[C@H](CCCCN)NC(=O)[C@H](Cc1ccccc1)NC(=O)[C@H](Cc1ccccc1)NC(=O)[C@H](Cc1c[nH]cn1)NC(=O)[C@@H](NC(=O)[C@@H](NC(=O)[C@@H]1CCCN1C(=O)[C@H](CC(N)=O)NC(=O)[C@@H](N)CCC(=O)O)C(C)C)C(C)C)C(=O)N[C@H](C(=O)N[C@H](C(=O)N1CCC[C@H]1C(=O)N[C@@H](CCCNC(=N)N)C(=O)O)[C@@H](C)O)C(C)C` [MBPp85–99, reference compound] registered an IC50 in assay [1] of 667 nM.

IGGRVHFFKDISPIA [HPV 7] yielded an IC50 in assay [1] of 208 nM.

IGGRVHFFRDISPIG [HPV 40]: the IC50 in assay [1] is 180 nM.

Regarding VHFFKNIVTPRTP [MBPp87–99], the “Inhibition of autoantibody binding to MBP” value in assay [2] is above 95%.
